Data reported in article PMC9814792 (Communications Chemistry, 2022).

Experiments:
F331, BEC, HaCat cells = test: 72 h cell viability (MTT) assay, non-malignant cell types; format: cell-based, human
Description: Cells were seeded (3–4 ×10^3 cells/well) in 96-well plates in 100 µL and after 24 h recovery treated with 100 µL of compounds at the indicated concentrations in triplicates. After 72 h drug exposure cell viability was determined by 3-(4,5-dimethylthiazol-2-yl)-2,5-diphenyltetrazolium bromide (MTT)-vitality assay (EZ4U, Biomedica, Vienna, Austria) following the manufacturer’s recommendations, as published. Absorbance was measured at 450 nm (at 620 nm as reference) using the multimode plate reader Tecan Infinite 200 Pro (Zurich, Switzerland). Cytotoxicity was expressed as IC50 values calculated from full dose-response curves using the 4 parameter nonlinear regression model of GraphPad Prism 8 software (La Jolla, CA, USA).

[1] = system: HCT116 and HCT116/OxR cells; test: In vitro platinum cell uptake by ICP-MS; format: cell-based, human; conditions: 3 h exposure
Description: Cells were seeded at 1.5 ×10^5 cells/well in six-well plates in 1.5 mL and after 24 h recovery treated with 500 µL of compounds at the indicated concentrations in triplicates. After 3 h drug exposure, cells were detached, washed twice with phosphate-buffered saline (PBS), dried at RT for 15 min and lysed in 100 µL HNO3 (69%, Rotipuran Supra, Carl Roth, Karlsruhe, Germany) for 1 h at RT. The lysate was added to fresh tubes containing 200 µL ddH2O. ICP-MS measurements were performed with an Agilent 8800 ICP-MS/MS instrument (Agilent Technologies, Tokyo, Japan). The sample introduction system consisted of a MicroMist nebulizer (200 μL min^−1 nominal sample uptake) and a quartz double-pass spray chamber. The instrument was tuned on a daily basis in order to achieve maximum sensitivity, low oxide formation, and low doubly charged ratios. Platinum was monitored in no gas mode with an integration time of 0.3 s. The flow injection measurements were performed with a bioinert HPLC 1260 (Agilent Technologies, Waldbronn, Germany), which was directly connected to the nebulizer of the ICP-MS/MS instrument with a PEEK tubing. The following chromatographic conditions were used: injection volume: 10 µL; flow rate: 0.30 mL min^-1; isocratic elution; CH3COONH4 (50 mM, pH = 6.8) aqueous solution was employed as mobile phase. The data were recorded and evaluated with the Agilent MassHunter Chromatography software package, MassHunter 4.6., 2019.

CCCCS(=N)(=O)CCC(NC(=O)[O][Pt]1([O]C(C)=O)[O]C(=O)C(=O)[O]1)C(=O)O.NC1CCCCC1N (mixture of isomers) [BSO-OxOAc, (OC-6-34)-Acetato(((1 S)-3-(butylsulfonimidoyl)-1-carboxypropyl)carbamato)((1 R,2 R)-1,2-cyclohexanediamino)oxalatoplatinum(IV)]
activity against non-malignant cell types (F331, BEC, HaCat cells): widely inactive
intracellular accumulation in HCT116/OxR as compared to parental HCT116 [1]: only non-significantly altered
overall cellular platinum accumulation compared between compounds ([1]; both cell models): distinctly lower than of oxaliplatin
